# Several values for one entry are separate records, joined by “and”; a condition that tells them apart may be missing. Equal values may be shown once. Read-outs that look alike come from different tables or passages of the source.
# Assays:
# [1] = tested on: male ICR mice; experiment: Body temperature; format: in vivo
# [2] = tested on: male ICR mice; experiment: Hot-plate test, compound alone; format: in vivo; conditions: tested 15 min after injection
# [3] = tested on: male ICR mice; experiment: Tail-flick test, compound alone; format: in vivo; conditions: for ED50 Tail-flick, percent effect at the individual dose: tested 15 min after injection; for change of tail-flick latencies by the compound itself: highest dose tested
# [4] = tested on: male ICR mice; experiment: Body temperature, antagonism of nicotine-induced hypothermia; format: in vivo; conditions: for AD50 Body temperature, percent effect at the individual dose: 15 min before nicotine, tested 30 min after nicotine; for block of nicotine-induced hypothermia: mice
# [5] = tested on: male ICR mice; experiment: Tail-flick test, antagonism of nicotine-induced antinociception; format: in vivo; conditions: s.c., 15 min before nicotine 2.5 mg/kg, tested 5 min after nicotine; (confidence limits)
# [6] = biological target: rat α7 nAChRs (Rattus norvegicus, UniProt Q05941); conditions: for α7 nH: Hill coefficient, mean
# [7] = biological target: NMDA receptors; conditions: read-out: IC50, NMDA receptors; ref MacDonald et al., 1990; Morris et al., 2005; cited from earlier work
# [8] = biological target: rat α3β4 nAChRs (Rattus norvegicus, UniProt P04757+P12392); conditions: for α3β4 nH: Hill coefficient, mean
# [9] = biological target: human α4β2 neuronal nAChRs (Homo sapiens, UniProt P17787+P43681); conditions: for α4β2 nH: Hill coefficient, mean
# [10] = biological target: α7 nAChRs (Rattus norvegicus, UniProt Q05941); experiment: [125I]IodoMLA binding assay, rat cerebral cortex; conditions: read-out: Ki, [125I]MLA binding sites, 70 pM [125I]iodoMLA
# [11] = tested on: neuronal nAChRs; experiment: Whole-cell patch-clamp, time course of inhibition; format: cell-based; conditions: co-application with ACh following pre-exposure
# [12] = tested on: male ICR mice; experiment: Hot-plate test, antagonism of nicotine-induced antinociception; format: in vivo; conditions: at 10 mg/kg s.c., 15 min before nicotine
# [13] = holding potential −100 to +60 mV, n=3
# Chain of human α4β2 neuronal nAChRs (P43681 29-627 limits assumed): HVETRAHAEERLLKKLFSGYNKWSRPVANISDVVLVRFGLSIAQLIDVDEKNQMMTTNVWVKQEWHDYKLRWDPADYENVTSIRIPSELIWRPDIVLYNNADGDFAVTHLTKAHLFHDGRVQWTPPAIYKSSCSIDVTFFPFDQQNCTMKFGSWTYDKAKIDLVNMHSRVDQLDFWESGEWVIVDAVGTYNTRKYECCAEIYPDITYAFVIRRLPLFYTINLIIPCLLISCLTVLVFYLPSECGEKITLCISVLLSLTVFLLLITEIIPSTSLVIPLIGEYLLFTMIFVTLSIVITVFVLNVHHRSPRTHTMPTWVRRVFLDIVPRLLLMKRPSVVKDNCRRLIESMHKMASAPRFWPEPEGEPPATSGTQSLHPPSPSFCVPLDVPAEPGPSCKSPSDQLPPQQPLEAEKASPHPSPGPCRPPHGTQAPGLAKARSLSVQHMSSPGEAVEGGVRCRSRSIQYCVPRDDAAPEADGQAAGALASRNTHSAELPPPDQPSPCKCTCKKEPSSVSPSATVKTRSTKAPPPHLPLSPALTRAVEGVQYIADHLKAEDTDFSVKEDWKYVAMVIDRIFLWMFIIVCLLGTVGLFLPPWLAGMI
# Chain of human α4β2 neuronal nAChRs (P17787 26-502): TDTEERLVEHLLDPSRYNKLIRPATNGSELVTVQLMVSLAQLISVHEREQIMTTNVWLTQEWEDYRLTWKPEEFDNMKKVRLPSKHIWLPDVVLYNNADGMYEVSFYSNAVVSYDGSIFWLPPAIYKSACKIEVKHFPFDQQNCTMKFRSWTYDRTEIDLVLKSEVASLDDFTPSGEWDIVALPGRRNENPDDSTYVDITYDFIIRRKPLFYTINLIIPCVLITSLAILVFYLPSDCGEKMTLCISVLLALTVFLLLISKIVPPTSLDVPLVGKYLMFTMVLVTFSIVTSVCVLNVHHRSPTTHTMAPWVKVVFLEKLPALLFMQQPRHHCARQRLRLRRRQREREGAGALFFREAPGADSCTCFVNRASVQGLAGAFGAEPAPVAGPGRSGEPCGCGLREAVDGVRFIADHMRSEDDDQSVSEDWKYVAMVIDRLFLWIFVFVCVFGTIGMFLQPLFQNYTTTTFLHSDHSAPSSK
# Chain of rat α7 nAChRs (Q05941 23-502): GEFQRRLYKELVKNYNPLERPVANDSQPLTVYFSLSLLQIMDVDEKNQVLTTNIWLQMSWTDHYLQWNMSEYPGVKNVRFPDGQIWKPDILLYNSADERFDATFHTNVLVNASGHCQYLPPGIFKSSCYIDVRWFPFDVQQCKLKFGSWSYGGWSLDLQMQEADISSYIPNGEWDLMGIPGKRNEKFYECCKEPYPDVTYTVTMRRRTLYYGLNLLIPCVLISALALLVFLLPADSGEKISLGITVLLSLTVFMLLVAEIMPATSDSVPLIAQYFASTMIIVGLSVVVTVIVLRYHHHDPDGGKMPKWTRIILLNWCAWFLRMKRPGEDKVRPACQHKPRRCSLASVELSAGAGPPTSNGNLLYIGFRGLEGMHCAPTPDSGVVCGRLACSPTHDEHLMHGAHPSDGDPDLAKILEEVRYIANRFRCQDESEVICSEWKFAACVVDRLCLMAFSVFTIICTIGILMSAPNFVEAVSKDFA
# Chain of rat α3β4 nAChRs (P04757 26-499): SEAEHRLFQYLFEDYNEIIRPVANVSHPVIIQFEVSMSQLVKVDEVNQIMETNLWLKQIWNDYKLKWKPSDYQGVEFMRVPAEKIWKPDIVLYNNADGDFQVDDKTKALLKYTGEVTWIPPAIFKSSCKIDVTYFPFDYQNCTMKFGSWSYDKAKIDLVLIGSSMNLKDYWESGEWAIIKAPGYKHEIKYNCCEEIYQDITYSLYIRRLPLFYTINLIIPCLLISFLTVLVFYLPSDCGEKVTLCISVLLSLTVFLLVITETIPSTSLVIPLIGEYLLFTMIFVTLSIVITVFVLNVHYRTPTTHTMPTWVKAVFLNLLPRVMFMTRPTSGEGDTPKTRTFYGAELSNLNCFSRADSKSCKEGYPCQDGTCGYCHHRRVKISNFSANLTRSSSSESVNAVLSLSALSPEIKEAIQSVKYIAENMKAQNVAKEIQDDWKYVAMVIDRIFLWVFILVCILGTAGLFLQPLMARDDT
# Chain of rat α3β4 nAChRs (P12392 21-495): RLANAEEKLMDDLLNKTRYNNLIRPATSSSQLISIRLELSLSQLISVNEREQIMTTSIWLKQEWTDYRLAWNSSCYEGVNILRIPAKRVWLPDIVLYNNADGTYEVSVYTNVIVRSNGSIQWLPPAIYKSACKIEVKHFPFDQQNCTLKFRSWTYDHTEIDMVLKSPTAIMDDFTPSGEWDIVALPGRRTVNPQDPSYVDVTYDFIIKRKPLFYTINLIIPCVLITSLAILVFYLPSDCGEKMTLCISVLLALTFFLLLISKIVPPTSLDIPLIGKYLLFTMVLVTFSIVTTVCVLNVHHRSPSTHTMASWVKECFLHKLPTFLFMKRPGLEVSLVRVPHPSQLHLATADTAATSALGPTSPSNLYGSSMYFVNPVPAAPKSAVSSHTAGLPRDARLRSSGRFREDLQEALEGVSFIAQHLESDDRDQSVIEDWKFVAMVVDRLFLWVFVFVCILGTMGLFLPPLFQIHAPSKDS
# Chain of α7 nAChRs (Q05941 23-502): as the sequence (Q05941 23-502) above
smiles,measurement,setting,value
"c1ccc(C2(N3CCCCC3)CCCCC2)cc1 [PCP, phencyclidine, reference compound]","ED50 Hypothermia, percent effect at the individual dose",[1]; at 5 mg/kg s.c.,5%@5
same,"ED50 Hot-Plate, percent effect at the individual dose",[2]; at 5 mg/kg s.c.,5%@5
same,"ED50 Tail-flick, percent effect at the individual dose",[3]; at 5 mg/kg s.c.,6%@5
same,change of tail-flick latencies by the compound itself,[3],did not significantly change
same,"AD50 Body temperature, percent effect at the individual dose",[4]; at 5 mg/kg s.c.,0%@5
same,block of nicotine-induced hypothermia,[4],failed to block
same,AD50 Tail-flick,[5],1.1 (0.87–1.30) mg/kg
same,α7 nH,[6],0.97
same,fold more potent at α7 than at α4β2 nAChRs,[6]; ratio of patch-clamp IC50s,23 fold
same,IC50,[7],~1 µM
same,α3β4 nH,[8],0.65
same,IC50,[8]; α3β4 IC50,6.4 µM and 6.35 µM
same,α4β2 nH,[9],1.4
same,IC50,[9]; α4β2 IC50,29 µM
"CN(C)c1ccc2c(c1)CC1CC(Cc3ccccc3)N(C)C21 (stereo not drawn) [HDMP, 1,2,3,3a,4,8b-hexahydro-2-benzyl-6-N,N-dimethylamino-1-methylindeno[1,2,-b]pyrrole]","ED50 Hypothermia, percent effect at the individual dose",[1]; at 10 mg/kg s.c.,0%@10
same,Ki,[10],> 10 µM
same,"ED50 Hot-Plate, percent effect at the individual dose",[2]; at 10 mg/kg s.c.,8%@10
same,"ED50 Tail-flick, percent effect at the individual dose",[3]; at 10 mg/kg s.c.,2%@10
same,change of tail-flick latencies by the compound itself,[3],did not significantly change
same,time in which the inhibitory effect develops,[11],40 to 60 s
same,"AD50 Body temperature, percent effect at the individual dose",[4]; at 10 mg/kg s.c.,0%@10
same,block of nicotine-induced hypothermia,[4],failed to block
same,AD50 Tail-flick,[5],0.008 (0.004–0.015) mg/kg
same,"inhibition of whole-cell currents, α7","[6]; 0.1 μM, −80 mV, example cell",55%
same,α7 nH,[6],0.73
same,fold more potent than PCP in inhibition of α7 nAChRs,[6]; based on IC50 values 1.25 and 0.07 μM,18 fold
same,"voltage-dependence of inhibitory effect, α7",[6]; [13],voltage-independent
same,fold more potent at α7 than at α3β4 nAChRs,[6]; ratio of patch-clamp IC50s,414 fold
same,fold more potent at α7 than at α4β2 nAChRs,[6]; ratio of patch-clamp IC50s,357 fold
same,"effect on whole-cell currents, α3β4","[8]; 0.1 μM, −80 mV, example cell",no effect
same,α3β4 nH,[8],1.06
same,fold less potent than PCP in inhibition of α3β4 nAChR function,[8]; based on IC50s 28.98 and 6.35 μM,4.6 fold
same,"voltage-dependence of inhibitory effect, α3β4",[8]; [13],voltage-independent
same,IC50,[8]; read-out: α3β4 IC50,29 µM
same,"AD50 Hot-Plate, percent effect (inhibition) at the individual dose",[12],20%@10
same,"effect on whole-cell currents, α4β2","[9]; 0.1 μM, −80 mV, example cell",no effect
same,α4β2 nH,[9],1.15
same,"voltage-dependence of inhibitory effect, α4β2",[9]; [13],voltage-independent
same,IC50,[9]; read-out: α4β2 IC50,25.1 µM

# Source: paper PMC2998338 (Neuropharmacology, 2010)
